# From patent US4837228A, “Antiinflammatory and antimicrobial compounds and compositions” (The University of Mississippi, priority 1982, dated 1989)
# Like-named read-outs stand apart in the source and are kept apart here.
# Key:
# [1] = G.C. analysis of CBC in the hemolysis test solution; format: physicochemical
# Procedure: It was apparent that not all the CBC actually went into suspension. In order to determine if some of the CBC adhered to the wall of the glassware a 10 ml aliquot of the 2×10^-4 (solution a) of CBC saturated with NaCl was extracted with CHCl3 and analyzed by G.C. […] The flask was rinshed with ethanol and the washings analyzed by G.C. and found to contain 1.355 mg of CBC. The remaining 1.475 mg (50%) of CBC that could not be accounted for by G.C. analysis may have been lost during the extraction procedure or while adjusting the pH of the test solution. If the 1.475 mg CBC which could not be accounted for was actually in suspension then the maximum final concentration of CBC used in the highest CBC test level would be […] or one half the amount listed in Table 6. […] The actual activity of CBC may have been 3 to 30 times more protective of red cell membranes than an equivalent amount of PBZ.
# [2] = deaths and adverse effects observed in the rat paw edema test; format: in vivo; conditions: 480 mg/kg i.p. plus ethyl urethane i.p.
# Procedure: In the Rat Paw Edema Test, the rats utilized were divided into test groups of six to eight animals, weighed and marked so that individual rats could be identified; one hour before testing all rats were given a 700 mg/kg intraperitoneal injection of ethyl urethane in distilled water to render them tractable during testing. A circle was drawn, with a felt-tipped marker, around the hind leg of each rat just above the ankle, and each rat was dosed with a test or control compound by intraperitoneal injection. Negative control groups received the vehicle; while positive control groups received a dose of phenylbutazone (PBZ) as shown in Table II. Test compounds were given at doses of 60, 120, 240 and 480 mg/kg. The positive controls were given at 120 mg/kg and 60 mg/kg. Phenylbutazone was prepared for injection by suspending it in normal saline using Tween 60. The rats were then held in group cages for 30 minutes. The volume of the left hind paw was measured using a mercury displacement pleysmograph. The paw is dipped into the mercury until the mercury touches the line above the ankle. Mercury is then withdrawn until the mercury returns to its original level. The amount of mercury removed is measured in milliliters (ml). The mercury can be measured accurately to 0.01 ml. This left hind paw was then injected with 0.1 ml of a 5% w/v solution of viscous carageenan in normal saline. The injection was given between the metatarsal bones using a 27 gauge needle, and the rats then held in group cages for 3 hours. The volume of the left hind paws was measured again in the pleysmograph. The results were computed in the following manner:
# The eighth rat died within 24 hours of injection.
# Saccharomyces cerevisiae [3] = assay: agar well diffusion assay, S. cerevisiae; format: cell-based; conditions: from edge of agar well
# Procedure: (§1) Both qualitative and quantitative screens were performed. Qualitative screening was accomplished using the agar well diffusion assay technque while quantitative screening was accomplished by the two-fold (broth) serial dilution method to determine the minimum inhibitory concentration (MIC). Innoculation was accomplished with one loop-full of a 1:10 dilution of the 24-hour-old broth culture, (fungal cultures and M.smegmatis more often required 48 to 72 hours of incubation) of the test organisms in sterile water. Streptomycin sulfate was used as a positive control for antibacterial activity while amphitericin B was used as an antifungal positive control. Organisms utilized in the screens included gram-positive, gram-negative, and acid-fast bacteria as well as different types of fungi. […] An intermediate type activity is seen where R is hydrogen. However, where R is lengthened up to C15 a decrease in activity was noted. Total saturation of the two double bonds in the compounds having a methyl side chain lead, in most cases, to an increase in both antifungal and antibacterial activity.
# [4] = CNS screen in unanesthetized mice; format: in vivo; conditions: doses as large as 800 mg/kg
# Candida albicans = assay: agar well diffusion assay, C. albicans; format: cell-based; conditions: from edge of agar well
# Procedure: as §1
# Saccharomyces cerevisiae [5] = assay: MIC, two-fold (broth) serial dilution, S. cerevisiae; format: cell-based
# How it was run: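 Qualitative: agar well diffusion. Quantitative: two-fold (broth) serial dilution → MIC. Inoculum = 1 loop-full, 1:10 dilution of 24-h broth culture in sterile water; fungi/M. smegmatis 48–72 h incubation. Controls: streptomycin sulfate (antibacterial), amphotericin B (antifungal).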
smiles,measurement,setting,value
"CCCCCc1cc(O)c2c(c1)OC(C)(CCC=C(C)C)C=C2 (centres unmarked) [CBC (I), 2-methyl-2(4'methyl-pent-3'-enyl)-5-hydroxy-7-pentyl chromene]",amount of original CBC found in solution,"[1]; 10 ml aliquot, G.C.",0.3 mg
same,amount of CBC found in ethanol washings of the flask,[1]; G.C.,1.355 mg
same,maximum final concentration of CBC in the highest CBC test level,[1]; if unaccounted CBC was in suspension,50 µM
same,concentration of CBC found in test solution a,"[1]; nominal 2×10^-4, saturated with NaCl, extracted with CHCl3, G.C.",20 µM
same,deaths,[2],All the animals receiving 480 mg/kg died within 2 days of injection
same,width of inhibition zone,Saccharomyces cerevisiae [3]; 48 hr,8. mm
same,width of inhibition zone,Saccharomyces cerevisiae [3]; 72 hr,8. mm
same,effects on the CNS screen,[4],No significant effects
same,width of inhibition zone,Candida albicans; 48 hr,4.0 mm
same,width of inhibition zone,Candida albicans; 72 hr,4.0 mm
same,MIC,Saccharomyces cerevisiae [5]; 48 hr,25.0 µg/mL
same,MIC,Saccharomyces cerevisiae [5]; 72 hr,50.0 µg/mL
same,MIC,"Saccharomyces cerevisiae [5]; Saccharomyces cerevisiae, 48 h, read-out: MIC",25 µg/mL
same,MIC,"Saccharomyces cerevisiae [5]; Saccharomyces cerevisiae, 72 h, read-out: MIC",50 µg/mL
